Measurements as given in patent US20200316178A1 (SHIRE HUMAN GENETIC THERAPIES, INC., priority 2017, published 2020).
Like-named read-outs stand apart in the source and are kept apart here.

Experiments:
[1] = molecular target: T1, GCB (Homo sapiens, UniProt P04062); assay: SDS-PAGE of GCB with non-pH-adjusted isofagomine; type: physicochemical; details: non-pH-adjusted isofagomine added to GCB
T1 sequence (P04062 40-536): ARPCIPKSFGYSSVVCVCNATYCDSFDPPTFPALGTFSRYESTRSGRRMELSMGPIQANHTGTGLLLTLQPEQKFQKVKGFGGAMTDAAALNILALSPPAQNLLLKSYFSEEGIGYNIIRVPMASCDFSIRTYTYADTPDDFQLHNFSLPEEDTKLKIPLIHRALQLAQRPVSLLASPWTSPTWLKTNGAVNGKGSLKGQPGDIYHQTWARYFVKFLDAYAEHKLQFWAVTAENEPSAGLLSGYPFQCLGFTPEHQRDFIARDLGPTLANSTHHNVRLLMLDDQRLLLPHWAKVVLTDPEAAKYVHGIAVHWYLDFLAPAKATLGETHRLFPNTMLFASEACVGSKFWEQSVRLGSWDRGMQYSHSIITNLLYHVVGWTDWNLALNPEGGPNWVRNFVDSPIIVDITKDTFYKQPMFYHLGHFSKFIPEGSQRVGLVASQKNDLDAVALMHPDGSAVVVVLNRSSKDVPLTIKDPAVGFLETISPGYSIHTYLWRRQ
Description: (§1) Samples were denatured at 37° C. for 15 minutes. SDS-PAGE was run on an 8-16% Novex™ Tris-glycine pre-cast gel. 50 mM dithiothretiol was used as the reducing agent.

[2] = molecular target: T1, GCB; assay: SDS-PAGE of GCB with pH-adjusted isofagomine; type: physicochemical; details: isofagomine pH adjusted to 6.0, GCB from 100 mg/ml, Day 0 and Day 3
Description: as §1
The results are shown in FIG. 4A for Day 0 and in FIG. 4B for Day 3.

[3] = molecular target: T2, GCB (immobilized velaglucerase alfa) (Homo sapiens, UniProt P04062)
T2 sequence (P04062 40-536): T1 sequence (P04062 40-536)
Description: All SPR experiments were performed on a Biacore S-200 by a single-cycle kinetics method. For experiments at pH 7.4, 2 mg/ml GCB was diluted into the GE acetate pH 5.0 buffer to the final concentration of 100 μg/ml. The immobilization running buffer was 10 mM HEPES, 5 mM EDTA, 0.01% P-20, pH 7.4. This buffer was used directly in the binding assay subsequently.
For experiments at pH 5.0, 2 mg/ml GCB was diluted into the GE acetate pH 5.0 buffer to the final concentration of 100 μg/ml. The immobilization running buffer was 20 mM sodium phosphate, 2.7 mM potassium chloride, 137 mM sodium chloride, 5 mM tartrate, 0.01% P-20, pH 5.0. […] GCB was immobilized on a CM5 chip using a normal […] coupling procedure. The target immobilization level was 4000 RU.
For Biacore experiments at pH 7.4, the concentration range was 0.39-100 nM. The total was 9 points with 2-fold serial dilution. For Biacore experiments at pH 5.0, the concentration range was 0.39-100 nM. The total was 9 points with 2-fold serial dilution.
The conditions for the binding assay were as follows: 30 μl/min flow rate, 120 s association time, 600 s dissociation time, and 3 M magnesium chloride as the regeneration reagent.
For each of the pH 5.0 and pH 7.4 studies, two runs were performed. Black lines represent actual data and red lines represent model fitting.

[4] = molecular target: T3, VPRIV (a form of GCB) in human serum (Homo sapiens, UniProt P04062); assay: VPRIV activity in human serum at 37° C. with IFG; type: in vitro ADME; details: 10 nM VPRIV, human serum 37° C.; for VPRIV activity remaining: 60 minutes
T3 construct: Velaglucerase is secreted as a monomeric glycoprotein of approximately 63 kDa; Velaglucerase is composed of 497 amino acids; made in house
T3 sequence (P04062 40-536): T1 sequence (P04062 40-536)
Description: Enzyme activity was measured using the cleavage of the 4-methylumbelliferone b-D-glucopyranoside substrate.

[5] = pH of IFGT dissolved in water; type: physicochemical; details: 103 mg dissolved in 5 ml of water
Description: When IFGT is dissolved in water, an acidic solution results. […] The pH was adjusted to 6.0 by adding 15 μl 10 M sodium hydroxide to the solution.

[6] = tested on: endogenous serum GCB; details: SC dose of 2.5 mg/kg
[7] = Serum exposure of GCB after SC velaglucerase alfa with IFG (ECL ELISA, 4MU-GPS activity assay); details: 0.07 mg/kg IFGT added to 4 mg/kg GCB
Description: Test articles for dosing were prepared as frozen formulations to the animal facility prior to dosing. Test articles were thawed approximately 1 to 3 hours prior to dosing.

| SMILES | fragments of GCB on SDS-PAGE ([1]; 4° C.) | fragments of GCB on SDS-PAGE ([1]; −80° C.) | smaller bands (<50 kDa) on SDS-PAGE [2] | ka ([3]; First Run at pH 5.0) [M⁻¹ s⁻¹] | kd ([3]; First Run at pH 5.0) [s⁻¹] | ka ([3]; First Run at pH 7.4) [M⁻¹ s⁻¹] | kd ([3]; First Run at pH 7.4) [s⁻¹] | ka ([3]; Second Run at pH 5.0) [M⁻¹ s⁻¹] | kd ([3]; Second Run at pH 5.0) [s⁻¹] | ka ([3]; Second Run at pH 7.4) [M⁻¹ s⁻¹] | kd ([3]; Second Run at pH 7.4) [s⁻¹] | VPRIV activity remaining ([4]; 1 nM IFG) | VPRIV activity remaining ([4]; 10 nM IFG) | loss of VPRIV activity ([4]; 30 nM IFG (3× molar ratio) and higher) | pH of the solution [5] | GCB activity in the serum [6] | overall enzyme activity of GCB in serum ([7]; 4MU-GPS substrate) | amount of GCB in serum ([7]; ECL ELISA) |
| --- | --- | --- | --- | --- | --- | --- | --- | --- | --- | --- | --- | --- | --- | --- | --- | --- | --- | --- |
| OC[C@H]1CNC[C@@H](O)[C@@H]1O [IFG, isofagomine] | yielded fragments of GCB | not | No smaller bands having sizes of less than 50 kDa were observed | 12500 | 0.00314 | 242000 | 0.002274 | 9883 | 0.001954 | 280000 | 0.001785 | around 40% | around 40% | prevented most of the loss of activity |  |  |  |  |
| O=C(O)[C@H](O)[C@@H](O)C(=O)O.OCC1CNCC(O)[C@@H]1O [Isofagomine tartrate, isofagomine tartrate] |  |  |  |  |  |  |  |  |  |  |  |  |  |  | 3.25 | increase GCB activity in the serum above the upper limit of normal | substantially increased | substantially increased |
